Assay results from PubChem BioAssay AID1845217 (Molecular Pharmacology Branch, DTP, NCI, 2023).

Test system: VA-ES-BJ tumor spheroid viability
Experiment: Anticancer human tumor VA-ES-BJ cell line growth inhibition;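 further: spheroids exposed to compounds for seven days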;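 on viability, T/C: percent of DMSO vehicle control viability so 100% = untreated growth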
Settings: spheroids with HUVEC and MSC; for IC50: curve of first compound; for viability, T/C: stronger effect = lower value
In short: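 Single agents and combinations were tested on spheroids built from tumor cells plus HUVEC and hMSC, at half-log dilutions starting at or near clinical Cmax, else 10 microM; final DMSO 0.25% (v/v).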

[1] = second compound 30 pM, first compound 0.0316 µM
[2] = second compound 30 pM, first compound 0.1 µM
[3] = second compound 30 pM, first compound 0.316 µM
[4] = second compound 30 pM, first compound 1 µM
[5] = second compound 30 pM, first compound 3.16 µM
[6] = second compound 30 pM, first compound 10 µM
[7] = second compound 94.9 pM, first compound 0.0316 µM
[8] = second compound 94.9 pM, first compound 0.1 µM
[9] = second compound 94.9 pM, first compound 0.316 µM
[10] = second compound 94.9 pM, first compound 1 µM
[11] = second compound 94.9 pM, first compound 3.16 µM
[12] = second compound 94.9 pM, first compound 10 µM
[13] = second compound 0.0003 µM, first compound 0.0316 µM
[14] = second compound 0.0003 µM, first compound 0.1 µM
[15] = second compound 0.0003 µM, first compound 0.316 µM
[16] = second compound 0.0003 µM, first compound 1 µM
[17] = second compound 0.0003 µM, first compound 3.16 µM
[18] = second compound 0.0003 µM, first compound 10 µM
[19] = second compound 0.000949 µM, first compound 0.0316 µM
[20] = second compound 0.000949 µM, first compound 0.1 µM
[21] = second compound 0.000949 µM, first compound 0.316 µM
[22] = second compound 0.000949 µM, first compound 1 µM
[23] = second compound 0.000949 µM, first compound 3.16 µM
[24] = second compound 0.000949 µM, first compound 10 µM
[25] = second compound 0.003 µM, first compound 0.0316 µM
[26] = second compound 0.003 µM, first compound 0.1 µM
[27] = second compound 0.003 µM, first compound 0.316 µM
[28] = second compound 0.003 µM, first compound 1 µM
[29] = second compound 0.003 µM, first compound 3.16 µM
[30] = second compound 0.003 µM, first compound 10 µM

SMILES | IC50 (second compound 30 pM) [nM] | IC50 (second compound 94.9 pM) [nM] | IC50 (second compound 0.0003 µM) [nM] | IC50 (second compound 0.000949 µM) [nM] | IC50 (second compound 0.003 µM) [nM] | viability, T/C [1] [%] | viability, T/C [2] [%] | viability, T/C [3] [%] | viability, T/C [4] [%] | viability, T/C [5] [%] | viability, T/C [6] [%] | viability, T/C [7] [%] | viability, T/C [8] [%] | viability, T/C [9] [%] | viability, T/C [10] [%] | viability, T/C [11] [%] | viability, T/C [12] [%] | viability, T/C [13] [%] | viability, T/C [14] [%] | viability, T/C [15] [%] | also measured
COc1cc(C)[nH]c(=O)c1CN1CCc2c(Cl)cc(C(OC)C3COC3)c(Cl)c2C1=O (stereo not given) + COc1cc2c(cc1O)CCNC21CSC2c3c(OC(C)=O)c(C)c4c(c3C(COC1=O)N1C(O)C3Cc5cc(C)c(OC)c(O)c5C(C21)N3C)OCO4 | 933 | 981 | < 31.6 | < 31.6 | < 31.6 | 75.7 | 71.1 | 58.6 | 49.4 | 45.2 | 40.9 | 66.9 | 68.6 | 59.3 | 49 | 43.1 | 36.8 | 38.5 | 36.2 | 33.1 | viability, T/C [16]: 36.7%; viability, T/C [17]: 27.2%; viability, T/C [18]: 29.4%; viability, T/C [19]: 2.44%; viability, T/C [20]: 2.53%; viability, T/C [21]: 2.69%; viability, T/C [22]: 2.75%; viability, T/C [23]: 2.25%; viability, T/C [24]: 1.84%; viability, T/C [25]: 1.25%; viability, T/C [26]: 1.11%; viability, T/C [27]: 1.37%; viability, T/C [28]: 1.01%; viability, T/C [29]: 1.1%; viability, T/C [30]: 2%
Cc1cc(C)c(CNC(=O)c2cc(-c3ccc(CN4CCOCC4)cc3)cc3c2cnn3C2CCCC2)c(=O)[nH]1 + COc1cc2c(cc1O)CCNC21CSC2c3c(OC(C)=O)c(C)c4c(c3C(COC1=O)N1C(O)C3Cc5cc(C)c(OC)c(O)c5C(C21)N3C)OCO4 | > 10000 | > 10000 | < 31.6 | < 31.6 | < 31.6 | 103 | 105 | 109 | 104 | 101 | 96.4 | 97.6 | 101 | 96.8 | 95.2 | 88.7 | 82.6 | 48.5 | 48.4 | 47.7 | viability, T/C [16]: 42.4%; viability, T/C [17]: 38.6%; viability, T/C [18]: 32.6%; viability, T/C [19]: 2.91%; viability, T/C [20]: 3.27%; viability, T/C [21]: 3.08%; viability, T/C [22]: 2.61%; viability, T/C [23]: 2.08%; viability, T/C [24]: 1.68%; viability, T/C [25]: 0.95%; viability, T/C [26]: 1.8%; viability, T/C [27]: 1.23%; viability, T/C [28]: 1.96%; viability, T/C [29]: 1.92%; viability, T/C [30]: 1.57%
[2H]c1nc(C)nc([2H])c1-c1cc(NC[C@@H](C)c2cccc3c(C(=O)NC)ccnc23)ncn1 + COc1cc2c(cc1O)CCNC21CSC2c3c(OC(C)=O)c(C)c4c(c3C(COC1=O)N1C(O)C3Cc5cc(C)c(OC)c(O)c5C(C21)N3C)OCO4 | > 10000 | > 10000 | < 31.6 | < 31.6 | < 31.6 | 75.6 | 78.4 | 81.4 | 81.9 | 85.2 | 87.5 | 72.9 | 74 | 83.1 | 81 | 82.6 | 76.8 | 46.8 | 40.9 | 43.9 | viability, T/C [16]: 42.1%; viability, T/C [17]: 36%; viability, T/C [18]: 38.4%; viability, T/C [19]: 3.46%; viability, T/C [20]: 1.96%; viability, T/C [21]: 3.4%; viability, T/C [22]: 2.92%; viability, T/C [23]: 2.41%; viability, T/C [24]: 1.53%; viability, T/C [25]: 0.81%; viability, T/C [26]: 0.92%; viability, T/C [27]: 0.98%; viability, T/C [28]: 1.25%; viability, T/C [29]: 1.28%; viability, T/C [30]: 2.09%
